Source: paper PMC7660557, “Identification of a non-classical three-dimensional nuclear localization signal in the intestinal fatty acid binding protein” (PLoS ONE, 2020)

Tests used:
Assay in all cases: fluorescence titration of purified protein, hyperbolic fit, […]°C
[1] = target: T1, drFabp2 (intestinal fatty acid binding protein) (Danio rerio, UniProt A0A8M1P5F0, K17A/K30A/R29A)
T1 construct: gene fabp2; Full-length mutant, recombinant from E. coli BL21 (DE3), delipidated (apo)

[2] = target: T2, drFabp2 (intestinal fatty acid binding protein) (Danio rerio, UniProt A0A8M1P5F0, K17A/K28A/R29A)
T2 construct: gene fabp2; Full-length mutant, recombinant from E. coli BL21 (DE3), delipidated (apo)
T2 sequence (A0A8M1P5F0 entry or part of it K17A/K28A/R29A): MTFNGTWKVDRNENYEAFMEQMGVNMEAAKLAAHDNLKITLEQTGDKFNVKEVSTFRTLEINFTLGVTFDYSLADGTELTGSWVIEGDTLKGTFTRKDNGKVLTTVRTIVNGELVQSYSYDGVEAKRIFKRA

[3] = target: T3, drFabp2 (intestinal fatty acid binding protein) (Danio rerio, UniProt A0A8M1P5F0)
T3 construct: gene fabp2; Full-length wild-type, recombinant from E. coli BL21 (DE3), delipidated (apo)
T3 sequence (A0A8M1P5F0 1-132): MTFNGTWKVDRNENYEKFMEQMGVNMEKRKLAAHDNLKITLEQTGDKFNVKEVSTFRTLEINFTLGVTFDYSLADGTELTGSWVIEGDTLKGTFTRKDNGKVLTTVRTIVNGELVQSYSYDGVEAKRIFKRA

T1 sequence (A0A8M1P5F0 entry or part of it K17A/R29A/K30A): as the sequence (A0A8M1P5F0 entry or part of it K17A/K28A/R29A) above, with A28K, K30A counted along it

Q: Which Kd [1] does the source give for `CC1=CC(C)=[N+]2C1=Cc1ccc(CCCCCCCCCCCCCCCC(=O)O)n1[B-]2(F)F` [BODIPY FL C16] here?
A: 129 nM

Q: And the Kd [2]?
A: 112 nM

Q: What about the Kd [3] of the same compound?
A: 160 nM
